In patent US8399465B2, “Compounds with two fused bicyclic heteroaryl moieties as modulators of leukotriene A4 hydrolase” (Janssen Pharmaceutica NV, priority 2009, dated 2013):
Counter-ions that a name gives are not always drawn.

molecular target: T1, recombinant human LTA4 hydrolase (rhLTA4H) (Homo sapiens, UniProt P09960); assay: Recombinant human LTA4 hydrolase assay for LTA4 hydrolase inhibitor activity; assay type: biochemical; conditions: not given
T1 construct: made in house; host or cells: Spodoptera frugiperda (Sf-9) cells, baculovirus (pFastBac1)
T1 sequence (P09960 1-611): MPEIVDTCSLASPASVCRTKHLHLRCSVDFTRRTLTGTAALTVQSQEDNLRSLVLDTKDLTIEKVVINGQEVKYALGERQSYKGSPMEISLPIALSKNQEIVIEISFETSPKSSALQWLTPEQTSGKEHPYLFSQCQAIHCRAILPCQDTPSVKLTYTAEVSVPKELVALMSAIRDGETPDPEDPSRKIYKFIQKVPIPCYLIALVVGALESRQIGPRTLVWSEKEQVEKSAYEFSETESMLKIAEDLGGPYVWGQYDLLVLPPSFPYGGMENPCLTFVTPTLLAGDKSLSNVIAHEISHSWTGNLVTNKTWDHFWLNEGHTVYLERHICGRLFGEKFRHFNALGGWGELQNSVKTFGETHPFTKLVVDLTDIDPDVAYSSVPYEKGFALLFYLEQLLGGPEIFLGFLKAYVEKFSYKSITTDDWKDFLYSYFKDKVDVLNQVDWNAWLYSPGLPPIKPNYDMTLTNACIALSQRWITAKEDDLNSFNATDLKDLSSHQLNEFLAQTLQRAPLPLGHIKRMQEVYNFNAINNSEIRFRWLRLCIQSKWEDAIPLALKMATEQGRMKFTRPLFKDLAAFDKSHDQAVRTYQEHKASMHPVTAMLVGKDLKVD
Experimental: Assay 1: Recombinant Human LTA4 Hydrolase Assay for LTA4 Hydrolase Inhibitor Activity
Compounds of the present invention were tested for LTA4 hydrolase inhibitor activity against recombinant human LTA4 hydrolase (rhLTA4H). Vectors were prepared and used to express rhLTA4H essentially as follows: LTA4 hydrolase encoding DNA was amplified by polymerase chain reaction (PCR) using a human placental cDNA library as a template. […] The amplified 1.9 kb DNA fragment encoding LTA4 hydrolase was isolated and cloned into the pFastBac1 vector (Invitrogen). Recombinant baculovirus was generated as described by the manufacturer, and used to infect Spodoptera frugiperda (Sf-9) cells. […] The purified enzyme solution was adjusted to contain 0.29 mg/mL LTA4 hydrolase, 50 mM Tris (pH 8.0), 150 mM NaCl, 5 mM dithiothreitol, 50% glycerol, and EDTA-free Complete protease inhibitor cocktail (Roche).
LTA4 substrate was prepared from the methyl ester of LTA4 (Cayman Chemical) by treatment with 67 equiv of NaOH under nitrogen at rt for 40 min. The LTA4 substrate in its free acid form was kept frozen at −80° C. until needed. Each compound was diluted to different concentrations in assay buffer (from Assay Designs) containing 10% DMSO. A 25-μL aliquot of each compound dilution was incubated for 10 min at rt with an equal volume of assay buffer containing 10 ng of recombinant human LTA4H. The solution was then adjusted to 200 μL with assay buffer. […] Each reaction was carried out at rt for 30 min. The reaction was stopped by diluting 10 μL of the reaction mixture with 200 μL of assay buffer. LTB4 was quantified in the diluted sample by a commercially available enzyme-linked immunoassay (Cayman Chemical Co.), as recommended by the manufacturer. Positive controls, under essentially identical conditions but without addition of an inhibitor compound, and negative controls, containing all assay components except enzyme, were routinely run in each experiment. IC50 values were determined by nonlinear regression of the activity data at different compound concentrations using Graphpad Prism 4.0, one site binding competition.
The values presented here are the result of a single determination or an average of two or more determinations. Compounds that were not tested are indicated as such by a “NT” designation.

Row | SMILES | IC50 [nM]
1 | CC(=O)N1C[C@@H]2C[C@H]1CN2Cc1cc2cc(Oc3nc4cnccc4s3)ccc2o1 [Example 199, (1S,4S)-1-{5-[5-(Thiazolo[4,5-c]pyridin-2-yloxy)-benzofuran-2-ylmethyl]-2,5-diaza-bicyclo[2.2.1]hept-2-yl}-ethanone formate] | 338

same assay, conditions: rhLTA4H, LTB4 by immunoassay; single determination or average of two or more; mark after value = form tested: ′ free base, ″ hydrochloride, ^ formate; read-out: IC50

Row | SMILES | IC50 [nM]
2 | O=C1Cc2cc(C(F)(F)F)ccc2N1Cc1coc2cc(Oc3nc4ncccc4s3)ccc12 [Example 400, 1-[6-(Thiazolo[4,5-b]pyridin-2-yloxy)-benzofuran-3-ylmethyl]-5-trifluoromethyl-1,3-dihydro-indol-2-one] | 1120
3 | CC(=O)N1C[C@@H]2C[C@H]1CN2Cc1cc2ccc(Oc3nc4cnccc4s3)cc2o1 [Example 203, (1S,4S)-1-{5-[6-(Thiazolo[4,5-c]pyridin-2-yloxy)-benzofuran-2-ylmethyl]-2,5-diaza-bicyclo[2.2.1]hept-2-yl}-ethanone] | 2570
4 | O=C(O)CC1CCN(Cc2cc3ccc(Oc4nc5ccccc5s4)cc3o2)CC1 [Example 78, {1-[6-(Benzothiazol-2-yloxy)-benzofuran-2-ylmethyl]-piperidin-4-yl}-acetic acid formate] | 226
5 | O=C(O)C1CCN(CCc2c[nH]c3ccc(Oc4nc5ccccc5s4)cc23)CC1 [Example 73, 1-{2-[5-(Benzothiazol-2-yloxy)-1H-indol-3-yl]-ethyl}-piperidine-4-carboxylic acid] | 3460
6 | O=C(c1coc2cc(Oc3nc4ncccc4s3)ccc12)N1CCc2ccccc2C1 [Example 386, (3,4-Dihydro-1H-isoquinolin-2-yl)-[6-(thiazolo[4,5-b]pyridin-2-yloxy)-benzofuran-3-yl]-methanone] | 210
7 | COc1ccc(CNCc2coc3cc(Oc4nc5ncccc5s4)ccc23)cc1 [Example 346, (4-Methoxy-benzyl)-[6-(thiazolo[4,5-b]pyridin-2-yloxy)-benzofuran-3-ylmethyl]-amine] | 13
8 | c1ccc2sc(Oc3ccc4cc(CN5CCOCC5)sc4c3)nc2c1 [Example 133, (2-Morpholin-4-ylmethyl-benzo[b]thiophen-6-yloxy)-benzothiazole] | 473
9 | O=C1Cc2ccc(C(F)(F)F)cc2N1Cc1coc2cc(Oc3nc4ncccc4s3)ccc12 [Example 398, 1-[6-(Thiazolo[4,5-b]pyridin-2-yloxy)-benzofuran-3-ylmethyl]-6-trifluoromethyl-1,3-dihydro-indol-2-one] | 470
10 | CC(=O)N1C[C@@H]2C[C@H]1CN2Cc1coc2cc(Oc3nc4cccnc4s3)ccc12 [Example 221, (1S,4S)-1-{5-[6-(Thiazolo[5,4-b]pyridin-2-yloxy)-benzofuran-3-ylmethyl]-2,5-diaza-bicyclo[2.2.1]hept-2-yl}-ethanone] | 227
11 | CC(=O)N[C@H]1C[C@H]2CC[C@@H](C1)N2Cc1cc2cc(Oc3nc4cccnc4s3)ccc2o1 [Example 125, meso-endo-N-{8-[5-(Thiazolo[5,4-b]pyridin-2-yloxy)-benzofuran-2-ylmethyl]-8-aza-bicyclo[3.2.1]oct-3-yl}-acetamide] | 200
12 | CC(=O)N[C@H]1C[C@H]2CC[C@@H](C1)N2Cc1cc2ccc(Oc3nc4cnccc4s3)cc2o1 [Example 201, meso-endo-N-{8-[6-(Thiazolo[4,5-c]pyridin-2-yloxy)-benzofuran-2-ylmethyl]-8-aza-bicyclo[3.2.1]oct-3-yl}-acetamide] | 236
13 | CNC(=O)C1CCN(Cc2cc3ccc(Oc4nc5ncccc5s4)cc3o2)CC1 [Example 204, 1-[6-(Thiazolo[4,5-b]pyridin-2-yloxy)-benzofuran-2-ylmethyl]-piperidine-4-carboxylic acid methylamide] | 169
14 | FC(F)(F)C1CCN(Cc2coc3cc(Oc4nc5ncccc5s4)ccc23)CC1 [Example 163, 2-[3-(4-Trifluoromethyl-piperidin-1-ylmethyl)-benzofuran-6-yloxy]-thiazolo[4,5-b]pyridine] | 107
15 | CC(=O)N[C@@H]1C[C@H]2CC[C@@H](C1)N2Cc1cc2ncc(Oc3nc4ncccc4s3)cc2o1 [Example 336, meso-exo-N-{8-[6-(Thiazolo[4,5-b]pyridin-2-yloxy)-furo[3,2-b]pyridin-2-ylmethyl]-8-aza-bicyclo[3.2.1]oct-3-yl}-acetamide] | 110

More lines, now with the values ahead:

Row | IC50 [nM] | SMILES
16 | 149 | c1cnc(OC2CCN(Cc3cc4cc(Oc5nc6ncccc6s5)ccc4o3)CC2)nc1 [Example 89, 2-{2-[4-(Pyrimidin-2-yloxy)-piperidin-1-ylmethyl]-benzofuran-5-yloxy}-thiazolo[4,5-b]pyridine]
17 | 118 | NC(=O)N1C[C@@H]2C[C@H]1CN2Cc1cc2ccc(Oc3nc4ncccc4s3)cc2o1 [Example 117, (1S,4S)-5-[6-(Thiazolo[4,5-b]pyridin-2-yloxy)-benzofuran-2-ylmethyl]-2,5-diaza-bicyclo[2.2.1]heptane-2-carboxylic acid amide]
18 | 1530 | O=C(c1coc2cc(Oc3nc4ncccc4s3)ccc12)N1CCC2CCCCC2C1 (stereo not shown) [Example 385, (Octahydro-isoquinolin-2-yl)-[6-(thiazolo[4,5-b]pyridin-2-yloxy)-benzofuran-3-yl]-methanone]
19 | 116 | FC1CCN(Cc2cc3ccc(Oc4nc5ncccc5s4)cc3o2)CC1 [Example 190, 2-[2-(4-Fluoro-piperidin-1-ylmethyl)-benzofuran-6-yloxy]-thiazolo[4,5-b]pyridine formate]
20 | 286 | CC(=O)N1CCCC2(CCN(Cc3cc4cc(Oc5nc6ncccc6s5)ccc4o3)C2)C1 (stereo not shown) [Example 166, 1-{2-[5-(Thiazolo[4,5-b]pyridin-2-yloxy)-benzofuran-2-ylmethyl]-2,7-diaza-spiro[4.5]dec-7-yl}-ethanone]
21 | 327 | c1cnc2nc(Oc3ccc4cc(CN5CCOCC5)oc4c3)sc2c1 [Example 115, 2-(2-Morpholin-4-ylmethyl-benzofuran-6-yloxy)-thiazolo[4,5-b]pyridine]
22 | 365 | CC(=O)N1C[C@@H]2C[C@H]1CN2Cc1coc2cc(Oc3nc4cnccc4s3)ccc12 [Example 222, (1S,4S)-1-{5-[6-(Thiazolo[4,5-c]pyridin-2-yloxy)-benzofuran-3-ylmethyl]-2,5-diaza-bicyclo[2.2.1]hept-2-yl}-ethanone]
23 | 31 | c1cnc2nc(Oc3ccc4c(CNCCN5CCCCC5)coc4c3)sc2c1 [Example 305, (2-Piperidin-1-yl-ethyl)-[6-(thiazolo[4,5-b]pyridin-2-yloxy)-benzofuran-3-ylmethyl]-amine]
24 | 62 | NC(=O)NC1CCN(Cc2cc3ccc(Oc4nc5ncccc5s4)cc3o2)C1 (stereo not shown) [Example 127, 1-(1-{[6-([1,3]Thiazolo[4,5-b]pyridin-2-yloxy)-1-benzofuran-2-yl]methyl}pyrrolidin-3-yl)urea formate]
25 | 186 | c1cnc2nc(Oc3ccc4cc(CN5C[C@@H]6C[C@H]5CO6)oc4c3)sc2c1 [Example 109, (1S,4S)-2-[2-(2-Oxa-5-aza-bicyclo[2.2.1]hept-5-ylmethyl)-benzofuran-6-yloxy]-thiazolo[4,5-b]pyridine formate]
26 | 275 | c1ccc2sc(Oc3ccc4c(CN5CCc6sc7ccccc7c6C5)c[nH]c4c3)nc2c1 [Example 39, 2-[6-(Benzothiazol-2-yloxy)-1H-indol-3-ylmethyl]-1,2,3,4-tetrahydro-benzo[4,5]thieno[3,2-c]pyridine formate]
27 | < 1 | CC(=O)N1CCC2(CCN(Cc3coc4cc(Oc5nc6ncccc6s5)ccc34)CC2)C1 [Example 265, 1-{8-[6-(Thiazolo[4,5-b]pyridin-2-yloxy)-benzofuran-3-ylmethyl]-2,8-diaza-spiro[4.5]dec-2-yl}-ethanone]
28 | 54 | CCN(CC)Cc1cc2cc(Oc3nc4ncccc4s3)ccc2o1 [Example 329, Diethyl-[5-(thiazolo[4,5-b]pyridin-2-yloxy)-benzofuran-2-ylmethyl]-amine formate]
